Test results reported in patent publication US9155795B2, “CXCR4 receptor compounds” (Anchor Therapeutics, Inc., priority 2010, dated 2015).
Where a SMILES comes first, the peptide text is derived from it. [ ]: non-standard residue; d: D form. The star is where a group is joined. Ala(3-Me-diazirin-3-yl) = CC1(C[C@H](N)C(=O)O)N=N1; 2Nal = N[C@@H](Cc1ccc2ccccc2c1)C(=O)O; Palmitoyl = CCCCCCCCCCCCCCCC(=O)*; Hyp = O=C(O)[C@@H]1C[C@@H](O)CN1

molecular target: T1, CXCR4 (Homo sapiens, UniProt P61073); test: Calcium flux assay, agonist mode, Flexstation (CCRF-CEM cells); format: cell-based; settings: CCRF-CEM, percent of maximum response compared with SDF-1α, read-out: % Intrinsic Activity
T1 construct: CCRF-CEM cells, a human T-cell ALL line that endogenously expresses CXCR4; endogenous in cells; host or cells: CCRF-CEM (human T-cell acute lymphoblastic leukemia line)
T1 sequence (P61073 whole entry): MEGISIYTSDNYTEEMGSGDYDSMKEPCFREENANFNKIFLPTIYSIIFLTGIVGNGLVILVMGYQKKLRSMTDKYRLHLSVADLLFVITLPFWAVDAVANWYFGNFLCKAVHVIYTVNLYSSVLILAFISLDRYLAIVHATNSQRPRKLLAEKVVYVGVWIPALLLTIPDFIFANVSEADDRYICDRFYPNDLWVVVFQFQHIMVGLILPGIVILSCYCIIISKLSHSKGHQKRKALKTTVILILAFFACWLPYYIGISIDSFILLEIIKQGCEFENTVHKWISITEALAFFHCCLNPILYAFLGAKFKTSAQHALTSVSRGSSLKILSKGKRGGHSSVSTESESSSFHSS
Text: Calcium Flux Assay is one of the most popular cell-based GPCR functional assays. It most often uses calcium sensing fluorescent dyes such as fura2 AM, fluo-4 and Calcium-4 to measure changes in intracellular calcium concentration. It is used mainly to detect GPCR signaling via Gαq subunit. Activation of these Gq-coupled GPCRs leads to activation of phospholipase C, which subsequently leads to increase in inositol phosphate production. IP3 receptors on endoplasmic reticulum sense the change then release calcium into cytoplasm. Intracellular calcium binding to the fluorescent dyes can be detected by instruments that quantify fluorescent intensities, such as FLIPR Tetra, Flexstation (MDS) and FDSS (Hamamatsu). In addition, to assess Gq-couple receptor signaling, a calcium flux assay can also be used to study Gs and Gi couple receptors by co-expressing CNG (cyclic nucleotide gated calcium channel) or chimeric G-proteins (Gqi5, Gsi5 for example). Activation of some Gi-coupled receptors can also be detected by calcium flux assay via Gβγ mediated phospholipase C activation.
The calcium flux assay was used to assess the test compounds' ability to activate the CXCR4 receptor in CCRF-CEM cells (human T lymphoblasts from acute lymphoblastic leukemia). […] After dye loading by incubating with Calcium-4 dye at 37° C. for 1 hour, cell plates were read at 37° C. using the using the Flexstation 3 workstation. Receptor activation was assessed by measuring changes in fluorescent intensity after the addition of the test compounds or the reference agonist SDF-1α on the using the Flexstation 3 workstation. EC50
and percent intrinsic actively were derived from the data collected. Intrinsic activity refers to the efficacy of the test compound and is calculated as the percent of maximum response compared with the response of the reference standard (i.e., natural agonist, SDF-1α).

Compared with CCCCCCCCCCCCCCCC(=O)NCC(=O)NCC(=O)N[C@@H](Cc1ccc(O)cc1)C(=O)N[C@@H](CCC(N)=O)C(=O)N[C@@H](CCCCN)C(=O)N[C@@H](CCCCN)C(=O)N[C@@H](CC(C)C)C(=O)N[C@@H](CCCNC(=N)N)C(=O)N1CCC[C@@H]1C(=O)N1C[C@H](O)C[C@H]1C(=O)N[C@H](C(=O)N[C@@H](CC(=O)O)C(=O)N[C@@H](CCCCN)C(=O)N[C@@H](Cc1ccc(O)cc1)C(=O)N[C@@H](CCCNC(=N)N)C(=O)N[C@@H](CC(C)C)C(N)=O)[C@@H](C)O [Compound 36] (Palmitoyl-GGYQKKLR[dP][Hyp]TDKYRL-NH2; C-terminus assumed), CCCCCCCCCCCCCCCC(=O)N[C@@H](CCSC)C(=O)NCC(=O)N[C@@H](Cc1ccc(O)cc1)C(=O)N[C@@H](CCC(N)=O)C(=O)N[C@@H](CCCCN)C(=O)N[C@@H](CCCCN)C(=O)N[C@@H](CC(C)C)C(=O)N[C@@H](CCCNC(=N)N)C(=O)N[C@@H](CO)C(=O)NCC(=O)N[C@H](C(=O)N[C@@H](CC(=O)O)C(=O)N[C@@H](CCCCN)C(=O)N[C@@H](Cc1ccc(O)cc1)C(=O)N[C@@H](CCCNC(=N)N)C(=O)N[C@@H](CC(C)C)C(N)=O)[C@@H](C)O [Compound 19] (Palmitoyl-MGYQKKLRSGTDKYRL-NH2; C-terminus assumed) is higher in Emax: 55.2% for the first, 101% for the second.

Going from CCCCCCCCCCCCCCCC(=O)NCC(=O)NCC(=O)N[C@@H](Cc1ccc(O)cc1)C(=O)N[C@@H](CCC(N)=O)C(=O)N[C@@H](CCCCN)C(=O)N[C@@H](CCCCN)C(=O)N[C@@H](CC1(C)N=N1)C(=O)N[C@@H](CCCNC(=N)N)C(=O)N[C@@H](CO)C(=O)N[C@@H](C)C(=O)N[C@H](C(=O)N[C@@H](CC(=O)O)C(=O)N[C@@H](CCCCN)C(=O)N[C@@H](Cc1ccc(O)cc1)C(=O)N[C@@H](CCCNC(=N)N)C(=O)N[C@@H](CC(C)C)C(N)=O)[C@@H](C)O [Compound 37] (Palmitoyl-GGYQKK[Ala(3-Me-diazirin-3-yl)]RSATDKYRL-NH2; C-terminus assumed) to CCCCCCCCCCCCCCCC(=O)N[C@@H](CS)C(=O)NCC(=O)N[C@@H](Cc1ccc(O)cc1)C(=O)N[C@@H](CCC(N)=O)C(=O)N[C@@H](CCCCN)C(=O)N[C@@H](CCCCN)C(=O)N[C@@H](CC(C)C)C(=O)N[C@@H](CCCNC(=N)N)C(=O)N[C@@H](CO)C(=O)N[C@@H](C)C(=O)N[C@H](C(=O)N[C@@H](CC(=O)O)C(=O)N[C@@H](CCCCN)C(=O)N[C@@H](Cc1ccc(O)cc1)C(=O)N[C@@H](CCCNC(=N)N)C(=O)N[C@@H](CC(C)C)C(N)=O)[C@@H](C)O [Compound 30] (Palmitoyl-CGYQKKLRSATDKYRL-NH2; C-terminus assumed), the Emax rises from 85.7% to 95.3%.

First: CCCCCCCCCCCCCCCC(=O)N[C@@H](CCSC)C(=O)NCC(=O)N[C@@H](Cc1ccc(O)cc1)C(=O)N[C@@H](CCC(N)=O)C(=O)N[C@@H](CCCCN)C(=O)N[C@@H](CCCCN)C(=O)N[C@@H](CC(C)C)C(=O)N1CCC[C@H]1C(=O)N[C@@H](CCCNC(=N)N)C(=O)N[C@@H](CO)C(=O)N[C@@H](CCSC)C(=O)N[C@H](C(=O)N[C@@H](CC(=O)O)C(=O)N[C@@H](CCCCN)C(=O)N[C@@H](Cc1ccc(O)cc1)C(=O)N[C@@H](CCCNC(=N)N)C(=O)N[C@@H](CC(C)C)C(N)=O)[C@@H](C)O [Compound 7] (Palmitoyl-MGYQKKLPRSMTDKYRL-NH2; C-terminus assumed)
Second: CCCCCCCCCCCCCCCC(=O)N[C@@H](CCSC)C(=O)NCC(=O)N[C@@H](Cc1ccc(O)cc1)C(=O)N[C@@H](CCC(N)=O)C(=O)N[C@@H](CCCCN)C(=O)N[C@@H](CCCCN)C(=O)N[C@@H](CC(C)C)C(=O)N[C@@H](CCCNC(=N)N)C(=O)N[C@@H](CO)C(=O)N[C@@H](CCSC)C(=O)N[C@H](C(=O)N[C@@H](CC(=O)O)C(=O)N[C@@H](CCCCN)C(=O)N[C@@H](Cc1ccc2ccccc2c1)C(=O)N[C@@H](CCCNC(=N)N)C(=O)N[C@@H](CC(C)C)C(N)=O)[C@@H](C)O [Compound 16] (Palmitoyl-MGYQKKLRSMTDK[2Nal]RL-NH2; C-terminus assumed)
The Emax of the first is higher: 100% for the first, 34.4% for the second.

same assay, conditions: calcium flux

With CCCCCCCCCCCCCCCC(=O)NCC(=O)NCC(=O)N[C@@H](Cc1ccc(O)cc1)C(=O)N[C@@H](CCC(N)=O)C(=O)N[C@@H](CCCCN)C(=O)N[C@@H](CCCCN)C(=O)N[C@@H](CC1(C)N=N1)C(=O)N[C@@H](CCCNC(=N)N)C(=O)N[C@@H](CO)C(=O)N[C@@H](C)C(=O)N[C@H](C(=O)N[C@@H](CC(=O)O)C(=O)N[C@@H](CCCCN)C(=O)N[C@@H](Cc1ccc(O)cc1)C(=O)N[C@@H](CCCNC(=N)N)C(=O)N[C@@H](CC(C)C)C(N)=O)[C@@H](C)O [Compound 37] (Palmitoyl-GGYQKK[Ala(3-Me-diazirin-3-yl)]RSATDKYRL-NH2; C-terminus assumed) the EC50 was 71.1 nM.
